Data: patent publication US7282508B2, “Substituted 4-phenyl-4-(1H-imidazol-2-yl)-piperidine derivatives and their use as selective non-peptide delta opioid agonists” (Janssen Pharmaceutica N.V., priority 2001, dated 2007)

| Compound | melting point |
| --- | --- |
| CCOC(=O)N1CCC(c2ccccc2)(c2nccn2Cc2ccc(C(=O)O)cc2)CC1 [Compound 8] | 251.6 °C |
| O=C(c1ccccc1)N1CCC(c2ccccc2)(c2nccn2Cc2ccccc2)CC1 [Compound 2] | 122.7 °C |
| CCN/C(=N/C#N)N1CCC(c2ccccc2)(c2nccn2Cc2ccccc2)CC1 [Compound 4] | 84.2 °C |
| CCOC(=O)N1CCC(c2ccccc2)(c2nccn2Cc2ccc(C(=O)OC)cc2)CC1 [Compound 3] | 149.1 °C |
